Test results as given in ChEMBL document CHEMBL4000171, “Structure-activity relationship studies on 1-(2-oxopropyl)indole-5-carboxylic acids acting as inhibitors of cytosolic phospholipase A2α: Effect of substituents at the indole 3-position on activity, solubility, and metabolic stability” (Eur J Med Chem, 2017).
Values after ≈ are worked out from the molar mass of the structure shown.

Columns and labels:
[1] = test system: UGT; experiment: Metabolic stability in CD-1 mouse liver S9 fraction assessed as UGT-mediated glucuronidation of compound by measuring compound remaining at 5 uM preincubated for 3 mins followed by UDPGA addition measured after 60 mins by HPLC/MS analysis; format: ADME; conditions: read-out: Stability
[2] = target: T1, NADPH--cytochrome P450 reductase (Mus musculus, UniProt P37040); experiment: Metabolic stability in CD-1 mouse liver S9 fraction assessed as NADPH CYP450 reductase-mediated compound metabolism by measuring compound remaining in presence of NADPH at 20 uM after 30 mins by HPLC method; format: ADME; conditions: read-out: Stability
T1 sequence (P37040 whole entry): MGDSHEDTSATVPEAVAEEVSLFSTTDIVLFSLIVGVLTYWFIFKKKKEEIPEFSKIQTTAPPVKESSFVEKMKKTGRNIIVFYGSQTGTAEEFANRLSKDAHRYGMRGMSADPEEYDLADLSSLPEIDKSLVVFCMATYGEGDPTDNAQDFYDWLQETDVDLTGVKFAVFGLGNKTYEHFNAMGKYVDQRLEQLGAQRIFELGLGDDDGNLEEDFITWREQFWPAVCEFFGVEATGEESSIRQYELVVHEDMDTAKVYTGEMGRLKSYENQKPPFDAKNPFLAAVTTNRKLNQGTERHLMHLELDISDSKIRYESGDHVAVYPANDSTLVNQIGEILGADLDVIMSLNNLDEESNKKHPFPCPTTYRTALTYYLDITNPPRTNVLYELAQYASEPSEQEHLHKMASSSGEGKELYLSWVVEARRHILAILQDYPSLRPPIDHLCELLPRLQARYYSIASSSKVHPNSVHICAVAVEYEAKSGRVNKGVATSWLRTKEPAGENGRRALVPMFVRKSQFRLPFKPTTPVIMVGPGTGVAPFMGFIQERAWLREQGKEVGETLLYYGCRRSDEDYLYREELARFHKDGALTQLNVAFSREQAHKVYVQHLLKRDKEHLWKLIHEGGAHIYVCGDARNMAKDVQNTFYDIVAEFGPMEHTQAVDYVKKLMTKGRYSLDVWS

[3] = target: T2, NADPH--cytochrome P450 reductase (Rattus norvegicus, UniProt P00388); experiment: Metabolic stability in rat liver microsomes assessed as NADPH CYP450 reductase-mediated compound metabolism by measuring compound remaining in presence of NADPH at 20 uM after 30 mins by HPLC; format: ADME; conditions: read-out: Stability
T2 sequence (P00388 whole entry): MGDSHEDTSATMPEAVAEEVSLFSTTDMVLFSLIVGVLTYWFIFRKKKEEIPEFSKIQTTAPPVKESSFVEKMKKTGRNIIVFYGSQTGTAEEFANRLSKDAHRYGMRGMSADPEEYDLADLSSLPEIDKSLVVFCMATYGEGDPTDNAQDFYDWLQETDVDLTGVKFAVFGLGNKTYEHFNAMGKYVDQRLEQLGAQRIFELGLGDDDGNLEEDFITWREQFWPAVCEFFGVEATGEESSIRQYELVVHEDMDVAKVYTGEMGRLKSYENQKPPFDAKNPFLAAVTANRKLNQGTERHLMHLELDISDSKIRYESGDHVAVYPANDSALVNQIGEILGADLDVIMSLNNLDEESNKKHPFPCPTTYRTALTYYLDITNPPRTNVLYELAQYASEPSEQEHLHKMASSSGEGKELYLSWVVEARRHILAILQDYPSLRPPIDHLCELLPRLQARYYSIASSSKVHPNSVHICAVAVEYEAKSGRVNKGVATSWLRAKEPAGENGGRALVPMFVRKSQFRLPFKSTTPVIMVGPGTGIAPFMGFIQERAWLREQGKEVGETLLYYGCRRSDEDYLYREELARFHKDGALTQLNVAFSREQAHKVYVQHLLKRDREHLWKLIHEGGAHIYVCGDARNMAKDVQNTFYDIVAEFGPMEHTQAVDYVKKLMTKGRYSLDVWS

[4] = target: T2, NADPH--cytochrome P450 reductase; experiment: Metabolic stability in rat liver S9 fraction assessed as NADPH CYP450 reductase-mediated compound metabolism by measuring compound remaining in presence of NADPH at 20 uM after 30 mins by HPLC method; format: ADME; conditions: read-out: Stability
[5] = test system: UGT; experiment: Metabolic stability in Wistar rat liver S9 fraction assessed as UGT-mediated glucuronidation of compound by measuring compound remaining at 5 uM preincubated for 3 mins followed by UDPGA addition measured after 60 mins by HPLC/MS analysis; format: ADME; conditions: read-out: Stability
[6] = Thermodynamic solubility of the compound in phosphate buffer at pH 7.4 at 1 mg sonicated for 10 mins measured after 20 hrs by reverse phase HPLC analysis; format: physicochemical; conditions: read-out: Therm_solubility
[7] = target: T3, Cytosolic phospholipase A2 (Homo sapiens, UniProt P47712); experiment: Inhibition of human platelet cytosolic phospholipase alpha-2 using 1-stearoyl-2-arachidonoyl-sn-glycero-3-phosphocholine/1,2-dioleoyl-sn-glycerol as substrate after 60 mins by UV-HPLC method
T3 sequence (P47712 whole entry): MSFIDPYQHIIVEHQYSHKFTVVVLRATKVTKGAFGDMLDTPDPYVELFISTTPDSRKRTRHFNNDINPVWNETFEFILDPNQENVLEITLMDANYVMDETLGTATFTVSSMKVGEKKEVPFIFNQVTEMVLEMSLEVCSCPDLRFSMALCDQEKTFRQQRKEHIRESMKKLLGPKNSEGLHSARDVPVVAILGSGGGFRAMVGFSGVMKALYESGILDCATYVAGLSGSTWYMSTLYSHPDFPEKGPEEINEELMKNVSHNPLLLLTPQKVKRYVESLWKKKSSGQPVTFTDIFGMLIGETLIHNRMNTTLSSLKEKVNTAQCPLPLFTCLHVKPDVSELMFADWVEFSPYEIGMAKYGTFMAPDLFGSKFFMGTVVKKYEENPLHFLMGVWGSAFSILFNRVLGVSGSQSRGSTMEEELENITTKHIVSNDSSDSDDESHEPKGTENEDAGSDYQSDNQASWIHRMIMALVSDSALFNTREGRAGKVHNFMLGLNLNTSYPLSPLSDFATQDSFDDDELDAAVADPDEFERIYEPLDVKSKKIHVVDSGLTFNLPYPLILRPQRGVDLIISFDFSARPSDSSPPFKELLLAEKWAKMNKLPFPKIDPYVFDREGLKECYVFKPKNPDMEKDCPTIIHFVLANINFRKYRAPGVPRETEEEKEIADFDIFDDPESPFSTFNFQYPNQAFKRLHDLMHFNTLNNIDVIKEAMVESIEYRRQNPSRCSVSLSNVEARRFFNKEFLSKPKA

CCCCCCCCc1ccc(OCC(=O)Cn2cc(C(=O)CCCCC)c3cc(C(=O)O)ccc32)cc1
remaining at 1 h, 5 µM [1]: 78%
remaining at 0.5 h, 20 µM [2]: 86%
remaining at 0.5 h, 20 µM [3]: 93%
remaining at 0.5 h, 20 µM [4]: 100%
remaining at 1 h, 5 µM [5]: 83%

COc1ccc2c(c1)c(CC(=O)O)c(C)n2C(=O)c1ccc(Cl)cc1 [INDOMETHACIN]
solubility thermodynamic at 20 h [6]: 0.246 mg/mL (≈ 688 µM)

CCCCCCCCc1ccc(OCC(=O)Cn2cc(C(=O)CCCCCO)c3cc(C(=O)O)ccc32)cc1
remaining at 1 h, 5 µM [1]: 27%
remaining at 0.5 h, 20 µM [2]: 78%
solubility thermodynamic at 20 h [6]: 0.422 mg/mL (≈ 788 µM)
IC50 [7]: 0.031 µM
remaining at 0.5 h, 20 µM [3]: 86%
remaining at 0.5 h, 20 µM [4]: 72%
remaining at 1 h, 5 µM [5]: 43%
